Entries after “also recorded” stand apart in the source; their conditions may differ.
Experiments:
[1] = tested on: stereotypies induced by amphetamine; assay: Interaction with amphetamine (mice as printed); type: in vivo; conditions: in mice (so in the source), i.p.
Experimental: (§1) Amphetamine (2 mg/kg) is injected intraperitoneally into groups of 6 rats 30 minutes after the administration of CRL 41 378.
Using the procedures given above, the following results were obtained with a solution of CRL 41 382 in water at pH 6.

[2] = tested on: hypothermia, trembling and peripheral cholinergic symptoms induced by oxotremorine; assay: Interaction with oxotremorine; type: in vivo; conditions: mice, i.p.; for minimal effective dose: Mus musculus, ip, read-out: dose as from which the hypothermia induced by oxotremorine is antagonized; for action on signs of peripheral cholinergic stimulation induced by oxotremorine / action on trembling induced by oxotremorine / action on hypothermia induced by oxotremorine: oxotremorine 0.5 mg/kg; for action on hypothermia induced by oxotremorine: hydrochloride
Method in brief: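 Male mice, groups of 6, given the compound intraperitoneally in distilled water (20 ml/kg) 0.5 h before 0.5 mg/kg oxotremorine i.p. Hypothermia, trembling and peripheral cholinergic symptoms were assessed.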

mice [3] = assay: Motility reduced by hypoxic aggression (acute hypobaric anoxia); type: in vivo; conditions: i.p.
Experimental: (§2) In these tests, solutions of the said products in distilled water were administered intraperitoneally in a volume of 20 ml/kg to male mice and in a volume of 5 ml/kg to male rats.

mice [4] = assay: Behavioral despair (forced immersion); type: in vivo; conditions: mice which have been forcibly immersed, i.p.; hydrochloride
Experimental: as §2, with “The results of toxicological and neuropsychopharmacological tests which were carried out with the products according to the invention have been summarized below. In” for “In”
Half an hour after they have received CRL 41 378, groups of 6 mice are placed in a beaker filled with water to a height of 6 cm. The total period of immobility between the 2nd and 6th minutes following immersion is noted.

[5] = tested on: trembling and head twitches induced by 5-hydroxytryptophan (5-HTP); assay: Interaction with 5-hydroxytryptophan in association with an MAOI (nialamide); type: in vivo, male mice; conditions: for head twitches / partial trembling: i.p., nialamide + (±)-5-HTP
Experimental: The purpose of the procedure used is to investigate the activity of each product according to the invention as regards the trembling induced by 5-hydroxytryptophan (5-HTP) in association with an MAOI (in this case nialamide).
Each test product, in solution in distilled water, is administered intraperitoneally in a volume of 20 ml/kg to male mice.
Groups of 10 mice receive nialamide (20 mg/kg, administered gastrically) at time T-18 h, each test product at time T-0.5 h and then (±)-5-HTP (20 mg/kg, administered intraperitoneally) at time T. Immediately after the injection of the (±)-5-HTP, the mice are individually placed in transparent plastic boxes. The generalized trembling, the partial trembling and the head twitches are noted on a yes/no basis for 2 h.

[6] = tested on: stereotypies induced by amphetamine; assay: Interaction with amphetamine (rats); type: in vivo; conditions: i.p.; amphetamine 2 mg/kg
Experimental: as §2, with “The results of toxicological and neuropsychopharmacological tests which were carried out with the products according to the invention have been summarized below. In” for “In”
as §1

pH of aqueous solution = type: physicochemical
Experimental: The tests were carried out in solution in water at pH 4.0-5.5. The pH of the aqueous solution of CRL 41 378 varies according to the concentration: it is 4.0 at a concentration of 50 g/l, 4.5 at 12.5 g/l, 5.0 at 0.8 g/l and 5.5 at CRL 41 378 concentrations less than or equal to 0.2 g/l.

SMILES	action on stereotypies induced by amphetamine [1]	minimal effective dose [2] [mg/kg]	action on signs of peripheral cholinergic stimulation induced by oxotremorine [2]	action on trembling induced by oxotremorine [2]	action on hypothermia induced by oxotremorine [2]	motor recovery after acute hypobaric hypoxia (mice [3]; hydrochloride)	period of immobility (mice [4])	analogy with β-adrenergic stimulants in the 5-HTP procedure ([5]; 5-HTP + MAOI)	head twitches ([5]; male mice)	partial trembling ([5]; male mice)	action on stereotypies induced by amphetamine [6]	lethal effects of hypobaric anoxia (mice [3])	motor recovery after acute hypobaric hypoxia (mice [3])	intensity of potentiation of 5-HTP effects ([5]; higher doses, 5-HTP + MAOI, male mice)	pH of the aqueous solution (pH of aqueous solution; 0.8 g/l)	pH of the aqueous solution (pH of aqueous solution; 12.5 g/l)	pH of the aqueous solution (pH of aqueous solution; 50 g/l)	pH of the aqueous solution (pH of aqueous solution; less than or equal to 0.2 g/l)
Cl.OC1(c2ccccc2)CN=CNC1 (stereo not shown) [CRL 41 382, 5-hydroxy-5-phenyl-1,4,5,6-tetrahydropyrimidine hydrochloride]	practically no modification of the stereotypies induced by amphetamine	≥ 1	practically no modification of the trembling or the signs of peripheral cholinergic stimulation due to oxotremorine	practically no modification of the trembling	the antagonism is very intense at a dose of 64 mg/kg; also recorded: antagonism of the hypothermia induced by apomorphine, oxotremorine and reserpine in mice	At doses of 16 mg/kg and 64 mg/kg, CRL 41 382 causes an increase in the motor recovery; also recorded: moderate increase in the motor recovery of mice after acute hypobaric hypoxia	does not modify the period of immobility; also recorded: absence of antagonism of the immobility due to "despair"	more closely resembles ritodrine or salbutamol	practically no modification of the head twitches	moderate potentiation of the partial trembling								
CC(=O)N1C=NCC(c2ccccc2)C1.Cl (stereo not shown) [CRL 41 378, 1-acetyl-5-phenyl-1,4,5,6-tetrahydropyrimidine hydrochloride]		≥ 0.5	practically no modification of the signs of peripheral cholinergic stimulation induced by oxotremorine	does not modify the intensity of the trembling induced by oxotremorine	very intense at doses of 2 and 4 mg/kg and is then less significant for the highest doses used (16 and 64 mg/kg); also recorded: antagonism of the hypothermia induced by apomorphine, reserpine and oxotremorine in mice			more closely resembles fenoterol	moderately potentiates the head twitches	distinctly potentiates the partial trembling	at the highest dose used (32 mg/kg), CRL 41 378 potentiates the stereotypies induced by amphetamine	At a dose of 64 mg/kg, CRL 41 378 aggravates the effects of hypobaric anoxia and causes the death of all the animals treated	at doses of 1 mg/kg, 4 mg/kg and 16 mg/kg, CRL 41 378 does not cause a modification of the motor recovery	the potentiation being very intense as from a dose of 16 mg/kg	5.0	4.5	4.0	5.5

— patent US4774248A, “Methods of treating depression and depressive states using 5-phenyl-1,4,5,6-tetrahydropyrimidine derivatives” (priority 1985, dated 1988)
